Laboratory results published in patent publication US20240336566A1, “CRYSTALLINE FORMS OF A COMPOUND FOR THE TARGETED DEGRADATION OF THE ANDROGEN RECEPTOR” (Arvinas Operations, Inc., priority 2023, published 2024).
Like-named read-outs stand apart in the source and are kept apart here.

Legend:
Type in all cases: physicochemical
[1] = 7-day stability assessment (appearance, HPLC, XRPD); conditions: for Reported Purity / Total impurities: HPLC
Procedure: The material was gently ground to release any agglomerates and loaded onto a multi-well plate with Kapton or Mylar polymer film to support the sample. […] Data were visualized and images generated using the HighScore Plus 4.7 desktop application (PANalytical, 2θ17).
They all remained white or off-white solids. • XRPD analysis determined the patterns were retained.

[2] = Primary salt screen: XRPD post temperature cycling/evaporation, post drying and post storage at 40° C./75% RH
Procedure: • 30 mg samples of Compound A were weighed out into 2 mL screw cap sample vials for 96 experiments. To these, 200 μL of the appropriate solvent system was added to dissolve the material or form a slurry. See Table 16 for the solvent systems selected for the primary salt screen.
• 1.05 eq. of solid counterions were weighed into six separate vials each and 1 molar stock solutions were prepared for liquid counterions in 5 mL of THF. See Table 17 for selected counterions and mass/volume needed for 1.05 eq. additions. • 100 μL of the appropriate solvent was added to the solid counterions.
The solution/slurry of counterion was added to the solution/slurry of the free base material.
• The samples were placed in an incubator shaker to temperature cycle between ambient and 40° C. over 4 hour cycles. • After ca. 72 hours of temperature cycling, observations were noted, see Table 19.
• Where slurries were obtained, the solids were isolated via centrifugation. Solids and gels were analyzed by XRPD.
Any samples that were clear solutions after temperature cycling were left to evaporate at ambient conditions. See Table 20 for observations made after evaporation. Solids obtained through evaporation were analyzed by XRPD.
• The samples obtained from temperature cycling were dried under vacuum at 40° C. for ca. 20 hours while the samples obtained from evaporation were dried under vacuum at 40° C. for ca. 4 hours. […]

[3] = Primary crystallization screen: XRPD before and after drying at 40° C.; conditions: dried at 40° C. for approximately 18 h
Procedure: • 34×40 mg of Compound A was weighed into vials before the selected solvents were added to prepare slurries, where possible. See Table 29 for a list of solvent systems used and the volume of solvent used. • Stirrer bars were added to the vials, before the vials were sealed and temperature cycled with stirring between 5° C. and 40° C. The heating rate was 0.1° C./min and the samples were held at 5° C. and 40° C. for 2 hours. • After temperature cycling for 4 days, observations were made (see Table 29). Slurries were centrifuge filtered and the solids were analyzed by XRPD • The solids were dried at 40° C. for approximately 18 h before being re-analyzed by XRPD. • Saturated solutions were then split into 3 vials for the following experiments • Evaporation at ambient temperature • Cooling (5° C.). • Where no solids were obtained after 72 hours, the samples were moved to the freezer at −20° C. for further cooling. • Where no solids were obtained from further cooling, the samples were allowed to evaporate at ambient temperature. • Anti-solvent addition at ambient temperature. • Where no solids were obtained after 72 hours the samples were moved to the freezer at −20° C. to encourage crystallization. • Where no solids were obtained from cooling, the samples were allowed to evaporate at ambient temperature.

[4] = 7 days at 40° C./75% RH (open vial)
[5] = 7 days at Ambient light (closed vial)
[6] = input material before storage (baseline of the stability assessment)
[7] = Compound A + 1.05 eq. counterion (= label), DCM
[8] = Compound A + 1.05 eq. counterion (= label), DCM, dried under vacuum at 40° C.
[9] = Compound A + 1.05 eq. counterion (= label), DCM, stored ca. 20 hours
[10] = Compound A + 1.05 eq. counterion (= label), DMSO:Water (50:50 % v/v)
[11] = Compound A + 1.05 eq. counterion (= label), THF
[12] = Compound A + 1.05 eq. counterion (= label), THF, dried under vacuum at 40° C.
[13] = Compound A + 1.05 eq. counterion (= label), THF, stored ca. 20 hours
[14] = Compound A + 1.05 eq. counterion (= label), DCM:Methanol (50:50 % v/v)
[15] = Compound A + 1.05 eq. counterion (= label), 1,4-Dioxane
[16] = Compound A + 1.05 eq. counterion (= label), 1,4-Dioxane, dried under vacuum at 40° C.
[17] = Compound A + 1.05 eq. counterion (= label), 1,4-Dioxane, stored ca. 20 hours
[18] = Compound A + 1.05 eq. counterion (= label), DCM:Methanol (50:50 % v/v), dried under vacuum at 40° C.
[19] = Compound A + 1.05 eq. counterion (= label), DCM:Methanol (50:50 % v/v), stored ca. 20 hours
[20] = Compound A + 1.05 eq. counterion (= label), DMSO:Water (50:50 % v/v), stored ca. 20 hours
[21] = Compound A + 1.05 eq. counterion (= label), THF:Water (98:2 % v/v)
[22] = Compound A + 1.05 eq. counterion (= label), THF:Water (98:2 % v/v), dried under vacuum at 40° C.
[23] = Compound A + 1.05 eq. counterion (= label), THF:Water (98:2 % v/v), stored ca. 20 hours

Compound | XRPD results post temperature cycling and evaporation [2, 7] | XRPD results post drying [2, 8] | XRPD results post 40° C./75% RH [2, 9] | XRPD results post temperature cycling and evaporation [2, 10] | XRPD results post temperature cycling and evaporation [2, 11] | XRPD results post drying [2, 12] | XRPD results post 40° C./75% RH [2, 13] | XRPD results post temperature cycling and evaporation [2, 14] | XRPD results post temperature cycling and evaporation [2, 15] | XRPD results post drying [2, 16] | XRPD results post 40° C./75% RH [2, 17] | XRPD results post temperature cycling and evaporation [2, 21] | other results
COc1cc(O[C@H]2C(C)(C)[C@H](NC(=O)c3ccc(N4CCC(CN5CCN(c6ccc(C(=O)N[C@H]7CCC(=O)NC7=O)c(F)c6)CC5)CC4)cc3)C2(C)C)ccc1C#N [free base Pattern 2] |  |  |  |  |  |  |  |  |  |  |  |  | HPLC purity [1, 4]: 98.37 % relative area; XRPD after stability storage [1, 4]: No change; HPLC purity ([1]; 7 days at 80° C. (closed vial)): 98.33 % relative area; XRPD after stability storage ([1]; 7 days at 80° C. (closed vial)): No change; HPLC purity [1, 5]: 98.27 % relative area; XRPD after stability storage [1, 5]: No change; Reported Purity ([1]; after 7 days at 40° C./75% RH): 98.37 Area %; Total impurities ([1]; after 7 days at 40° C./75% RH): 1.63 Area %; Reported Purity ([1]; after 7 days at 80° C.): 98.33 Area %; Total impurities ([1]; after 7 days at 80° C.): 1.67 Area %; Reported Purity ([1]; after 7 days at ambient): 98.27 Area %; Total impurities ([1]; after 7 days at ambient): 1.73 Area %; Reported Purity [1, 6]: 98.39 Area %; Total impurities [1, 6]: 1.61 Area %; purity retained after stability storage (HPLC) ([1]; after 7 days at 40° C./75% RH (open vial), 80° C. (closed vial), ambient light (closed vial)): > 98 % relative area; HPLC purity ([1]; before stability testing (condition N/A)): 98.39 % relative area
O=C(O)C[C@H](O)C(=O)O [l-Malic acid] | A e | A e | A e | A t | A e | A e | A e |  |  |  |  |  | 
Cl [Hydrochloric acid] | t S |  |  |  |  |  |  | t S |  |  |  |  | 
O=C(O)/C=C/C(=O)O [Fumaric acid] | A e | A e | A e |  | A e | A e | A e | A e | S t * | A t d | A t |  | XRPD results post drying [2, 18]: A e; XRPD results post 40° C./75% RH [2, 19]: A e
CS(=O)(=O)O [Methanesulfonic acid] | A e | A e | A e | A t |  |  |  |  | A t | A t | A t | A e | XRPD results post drying ([2]; Compound A + 1.05 eq. counterion (= label), DMSO:Water (50:50 % v/v), dried under vacuum at 40° C.): A t; XRPD results post 40° C./75% RH [2, 20]: A t; XRPD results post drying [2, 22]: A e; XRPD results post 40° C./75% RH [2, 23]: A e
O=C(O)c1ccccc1 [Benzoic acid] | A e | A e | A e |  |  |  |  |  |  |  |  |  | 
O=C(O)C(O)C(O)C(=O)O (stereo not drawn) [l-Tartaric acid] | A e | A e | A e | A t | A e | A e | A e | A e | A t | A t | A t | A e | XRPD results post drying [2, 18]: A e; XRPD results post 40° C./75% RH [2, 19]: A e; XRPD results post drying [2, 22]: A e; XRPD results post 40° C./75% RH [2, 23]: A e
O=C(O)CC(=O)O [Malonic acid] | A e | A e | A e | A t | A e | A e | A e | A e |  |  |  | A e | XRPD results post drying [2, 18]: A e; XRPD results post 40° C./75% RH [2, 19]: A e; XRPD results post drying [2, 22]: A e; XRPD results post 40° C./75% RH [2, 23]: A e
O=C(O)CCC(=O)O [Succinic acid] | C e | A e d | C e h | A t |  |  |  |  |  |  |  |  | 
O=S(=O)(O)O [Sulfuric acid] |  |  |  |  |  |  |  |  |  |  |  |  | XRPD results post 40° C./75% RH [2]: A t and A e; XRPD results post drying [2]: A t and A e; XRPD results post temperature cycling and evaporation [2]: A t and A e
COc1cc(O[C@H]2C(C)(C)[C@H](NC(=O)c3ccc(N4CCC(CN5CCN(c6ccc(C(=O)N[C@H]7CCC(=O)NC7=O)c(F)c6)CC5)CC4)cc3)C2(C)C)ccc1C#N [free base Pattern 5] |  |  |  |  |  |  |  |  |  |  |  |  | XRPD form upon drying [3]: converted to Pattern 8
O=S(=O)(O)c1ccccc1 [Benzenesulfonic acid] | A e | A e | A e | A e | A t | A t | A t |  | A t | A t | A t | S e | XRPD results post 40° C./75% RH [2, 20]: A e h
